In patent publication US20180116209A1, “Liposome Formulations” (priority 2012, published 2018):

Columns and labels:
Root-Knot larvae (J2) = assay: Efficacy of nematicides (Oxamyl, Thiodicarb) in killing Root-Knot larvae (J2) in vitro; format: in vivo, M. incognita; settings: compared with Oxamyl, 200 ug to 10 mg
Experimental: M. incognita eggs collected from tomato cultures by NaOC1 extraction (Hussey and Barker, 1973). Briefly, six to twelve week old infected tomato roots were cut into 1-2 segment. Root segments were shacked vigorously in 200 ml of a 0.5% Na O Cl solution for 4 min. Then, the Na O Cl solution was passed quickly through a 200-mesh (75-um), nested over a 500-mesh sieve to collect freed eggs. The a 500-mesh sieve with eggs was quickly placed under a stream of cold water to remove residual Na O Cl and rinsed several times. About 50 ml aqueous suspension of eggs was collected and number of eggs per unit volume will be counted. The egg suspension was allowed to sit at room temperature for 4 days. The hatching juveniles were collected and used in the subsequent experiments.
Determine the efficient concentration of nematicides (Oxamyl and Thidiocarb) that kill or suppress Root-Knot Larvae.
M. incognita eggs collected from tomato cultures by NaOC1 extraction (Hussey & Barker, Plant Disease Reporter. 57:1025-1028 (1973)). Egg suspension was incubated at room temperature until larvae were hatched (4-5 days). The juveniles (J2) were counted and evaluated for activity/mobility for the duration of the study. Four different concentrations of both nematicides (Oxamyl and Thiodicarb) were used to assess their efficacy in killing the nematodes. These were untreated control, 200 ug, 1 mg, 2 mg, and 10 mg. […]

[1] = tested on: nematodes in a dehydrated state; settings: dry soils; cited from earlier work
plant roots = assay: Abamectin applied to soil prior to planting: gall formation, root necrosis, root length; format: in vivo
Experimental: Abamectin at 5 μg or 1 μg was directly applied to soil prior to planting. Alternatively abamectin was loaded into liposomes at either 5 μg or 1 μg and applied to soil prior to planting. Gall formation was detected. […] Therefore, liposomal abamectin formulations enhance root length as compared to non-liposomal abamectin formulations.

With `CS/C(C)=N\OC(=O)N(C)SN(C)C(=O)O/N=C(\C)SC` [Larvin (Thiodicarb), Thiodicarb] the “concentration needed to kill Root-Knot (J2)” value (Root-Knot larvae (J2)) was “required higher concentration to kill Root-Knot (J2)”.

For `CBr` [methyl bromide], the “tolerated dose compared to active forms in moist soil” value [1] is given as 10 times the lethal dose.

In the case of abamectin [non-liposomal abamectin], the root necrosis (plant roots; 1 μg applied to soil prior to planting, FIG. 4) is reported as “most root necrosis followed by the non-liposomal abamectin 1 μg application” and the gall formation (plant roots; 5 μg applied to soil prior to planting, FIG. 3) is reported as “most gall formulation followed by the non-liposomal abamectin 5 μg application”.
